Results from patent US12723024B2 (priority 2021, dated 2026).
Where two headings read alike, the source gives them in different places.

Assays:
[1] = Salt screening (slurry crystallization); assay type: physicochemical; design: key to Salt screening result: (+) shows that a crystalline salt was formed; (−) physical mixtures; conditions: for Polymorph obtained in salt screening: XRPD; for Salt screening result: slurry 50° C. then 25° C.
Experimental: About 45 mg was added to a suitable solvent and different equivalents of acids were added under stirring at 50° C. for about 2 hours and then at 25° C. for at least 32 hours. Ethanol, acetone, and ACN were used as screening solvents. When no precipitation was obtained or only a few solids were obtained, the solutions were placed at 5° C. for crystallization.
(§1) Obtained suspensions were taken out and centrifuged. Solids obtained was analysed by XRPD. Salts with high or medium crystallinity were further characterized (see Table 5).

[2] = Crystallinity by XRPD; assay type: physicochemical
Experimental: as §1
(§2) According to the salt screening results (see Table 4), totally 19 potential salt hits were identified. All the potential salt hits were further investigated by Differential Scanning Calorimetry (DSC), Thermogravimetric analysis (TGA), H-NMR, Ion chromatography (IC), Karl Fischer titration (KF), and Polarized Light Microscopy (PLM) to confirm their identity and evaluate their physicochemical properties as shown in Table 5 below.

[3] = Thermogravimetric analysis (TGA) weight loss; assay type: physicochemical; conditions: salt screening sample, at the temperature given (80-200° C.)
Excerpt: as §2

[4] = Hygroscopicity (water uptake) of salt hits; assay type: physicochemical; conditions: salt screening sample; for Hygroscopicity: grade in words
Excerpt: as §2

[5] = assay type: physicochemical; conditions: for chemical purity (%): solid state
[6] = Dynamic vapor sorption (DVS) test at 25° C.; assay type: physicochemical; conditions: for Desorp. (%) / Sorp. (%) / Water absorbed from 40% RH to 95% RH: 25° C.; for Desorp. (%) / Sorp. (%): cycle 40-0-95-0-40% RH; for Hygroscopicity / XRPD after DVS test: DVS at 25° C.; for Hygroscopicity: grade in words
[7] = Thermogravimetric analysis (TGA) weight loss; assay type: physicochemical; conditions: large scale batch
[8] = assay type: physicochemical; conditions: salt screening sample
Excerpt: as §2

[9] = listed as hydrochloride salt (polymorph A)
[10] = at the temperature printed in the same cell (100-170° C.)

Structure (SMILES): COc1cc(C(F)(F)F)c(OC)cc1[C@@H]1CCCNC1.Cl [HCl salt of (S)-3-(2,5-dimethoxy-4-(trifluoromethyl)phenyl)piperidine]
- Polymorph obtained in salt screening ([1]; ACN): Polymorph A
- Salt screening result ([1]; ACN): +
- Polymorph obtained in salt screening ([1]; Acetone): Polymorph A
- Salt screening result ([1]; Acetone): +
- Polymorph obtained in salt screening ([1]; EtOH): Polymorph A
- Salt screening result ([1]; EtOH): +
- Crystallinity ([2]; large scale batch): High
- Crystallinity ([2]; large scale batch, listed as hydrochloride salt (polymorph A)): high crystallinity
- Crystallinity ([2]; salt screening sample): High
- Weight loss (%) [3]: 0.08%
- Hygroscopicity [4]: None
- Initial chemical purity (%) ([5]; before storage): 99.8%
- chemical purity (%) ([5]; 25° C./92% RH, open container, 1 week): 99.8%
- chemical purity (%) ([5]; 40° C./75% RH, open container, 1 week): 99.8%
- chemical purity (%) ([5]; 60° C., tight container, 1 week): 99.8%
- Bulk stability ([5]; stressed conditions: 25° C./92% RH, 40° C./75% RH, 60° C., 1 week): chemically and physically stable
- Desorp. (%) ([6]; 0% RH): 0.01%
- Sorp. (%) ([6]; 0% RH): 0.00%
- Desorp. (%) ([6]; 10% RH): 0.01%
- Sorp. (%) ([6]; 10% RH): 0.01%
- Desorp. (%) ([6]; 20% RH): 0.012%
- Sorp. (%) ([6]; 20% RH): 0.01%
- Water absorbed from 40% RH to 95% RH [6]: about 0.17%
- Desorp. (%) ([6]; 30% RH): 0.03%
- Sorp. (%) ([6]; 30% RH): 0.01%
- Desorp. (%) ([6]; 40% RH): 0.03%
- Sorp. (%) ([6]; 40% RH): 0.01%
- Desorp. (%) ([6]; 50% RH): 0.04%
- Sorp. (%) ([6]; 50% RH): 0.01%
- Desorp. (%) ([6]; 60% RH): 0.04%
- Sorp. (%) ([6]; 60% RH): 0.02%
- Desorp. (%) ([6]; 70% RH): 0.04%
- Sorp. (%) ([6]; 70% RH): 0.03%
- Desorp. (%) ([6]; 80% RH): 0.07%
- Sorp. (%) ([6]; 80% RH): 0.05%
- Desorp. (%) ([6]; 90% RH): 0.12%
- Sorp. (%) ([6]; 90% RH): 0.12%
- Desorp. (%) ([6]; 95% RH): 0.19%
- Sorp. (%) ([6]; 95% RH): 0.19%
- Hygroscopicity [6, 9]: non-hygroscopic
- XRPD after DVS test [6, 9]: No form changes
- Weight loss (%) at Temperature (° C.) ([7]; at the temperature (100-170° C.), listed as hydrochloride salt (polymorph A)): about 0.3%
- Weight loss (%) at Temperature (° C.) [7, 10]: 0.3 at %

Structure (SMILES): COc1cc(C(F)(F)F)c(OC)cc1[C@@H]1CCCNC1.C[C@H](O)C(=O)O [L-lactate salt Polymorph A]
- Polymorph obtained in salt screening ([1]; ACN): Polymorph A
- Salt screening result ([1]; ACN): +
- Salt screening result ([1]; Acetone): Thin suspension
- Salt screening result ([1]; EtOH): Clear solution
- Crystallinity ([2]; salt screening sample): High
- Weight loss (%) [3]: 4.9%
- Water content (% w/w) [8]: 5.1% w/w
- Hygroscopicity [4]: None

Structure (SMILES): COc1cc(C(F)(F)F)c(OC)cc1[C@@H]1CCCNC1.O=C(O)C[C@H](O)C(=O)O [L-malate salt Polymorph A]
- Polymorph obtained in salt screening ([1]; ACN): Polymorph A
- Salt screening result ([1]; ACN): +
- Polymorph obtained in salt screening ([1]; Acetone): Polymorph A
- Salt screening result ([1]; Acetone): +
- Polymorph obtained in salt screening ([1]; EtOH): Polymorph A
- Salt screening result ([1]; EtOH): +
- Crystallinity ([2]; salt screening sample): High
- Weight loss (%) [3]: 2.3%
- Water content (% w/w) [8]: 5.9% w/w
- Hygroscopicity (water uptake % w/w) [4]: (~0.3%) % w/w

Structure (SMILES): COc1cc(C(F)(F)F)c(OC)cc1[C@@H]1CCCNC1.O=C(O)C(O)C(O)C(=O)O [L-tartrate salt (Polymorph B, anhydrate), L-tartaric acid salt of (S)-3-(2,5-dimethoxy-4-(trifluoromethyl)phenyl)piperidine]
- Polymorph obtained in salt screening ([1]; ACN): Polymorph B
- Salt screening result ([1]; ACN): +
- Polymorph obtained in salt screening ([1]; Acetone): Polymorph B
- Salt screening result ([1]; Acetone): +
- Polymorph obtained in salt screening ([1]; EtOH): Polymorph B
- Salt screening result ([1]; EtOH): +
- Crystallinity ([2]; large scale batch): High
- Crystallinity ([2]; large scale batch, listed as L-tartrate salt Polymorph B): high crystallinity
- Crystallinity ([2]; salt screening sample): High
- Weight loss (%) [3]: 0.9%
- Hygroscopicity [4]: None
- Desorp. (%) ([6]; 0% RH): 0.01%
- Sorp. (%) ([6]; 0% RH): 0.04%
- Desorp. (%) ([6]; 10% RH): 0.03%
- Sorp. (%) ([6]; 10% RH): 0.06%
- Desorp. (%) ([6]; 20% RH): 0.07%
- Sorp. (%) ([6]; 20% RH): 0.08%
- Water absorbed from 40% RH to 95% RH [6]: about 1.5%
- Desorp. (%) ([6]; 30% RH): 0.10%
- Sorp. (%) ([6]; 30% RH): 0.10%
- Desorp. (%) ([6]; 40% RH): 0.13%
- Sorp. (%) ([6]; 40% RH): 0.12%
- Desorp. (%) ([6]; 50% RH): 0.19%
- Sorp. (%) ([6]; 50% RH): 0.13%
- Desorp. (%) ([6]; 60% RH): 0.29%
- Sorp. (%) ([6]; 60% RH): 0.15%
- Desorp. (%) ([6]; 70% RH): 0.48%
- Sorp. (%) ([6]; 70% RH): 0.19%
- Desorp. (%) ([6]; 80% RH): 0.67%
- Sorp. (%) ([6]; 80% RH): 0.66%
- Desorp. (%) ([6]; 90% RH): 1.18%
- Sorp. (%) ([6]; 90% RH): 1.00%
- Desorp. (%) ([6]; 95% RH): 1.60%
- Sorp. (%) ([6]; 95% RH): 1.60%
- XRPD after DVS test [6]: No form changes
- Hygroscopicity [6]: slightly hygroscopic
- Weight loss (%) at Temperature (° C.) [7, 10]: 0.4 at %
- Weight loss (%) at Temperature (° C.) ([7]; at the temperature printed in the same cell (100-170° C.), listed as L-tartrate salt Polymorph B): about 0.4%
